One data set deals with E. coli K12. It is filed as cell-based, Escherichia coli. How it is done: (§1) The bacterial strains used here included Gram-positive bacteria Staphylococcus aureus USA300 LAC, Staphylococcus epidermidis 1457, Bacillus subtilis 168, and Gram-negative Escherichia coli K12. Clinical strains of S. aureus, including Mu50, UAMS-1 and Newman, were also evaluated.
(§2) The antimicrobial activity of peptides was evaluated using a standard broth microdilution protocol (Wang, G. (2008) J. Biol. Chem., 283:32637-32643). In brief, exponential phase bacteria at 10^6 CFU were incubated with serially diluted peptides overnight for ˜20 hours at 37° C. The plates were read on a ChroMate® 4300 Microplate Reader at 630 nm (GMI, Ramsey, Minn.). […] In addition, the effects of human serum (up to 10%), pH (6.8, 7.4 and 8.0) and 150 mM sodium chloride (NaCl) on MICs against S. aureus USA300 were also evaluated (Mishra et al. (2015) RSC Advances 5:59758-59769).

In a further data set the test system is S. epidermidis 1457. The data set is classed as cell-based, Staphylococcus epidermidis. As for the experimental part: as §1, §2
The subject of the next data set is B. subtilis 168. It is filed as cell-based, Bacillus subtilis. How it is done: as §1, §2
Another data set relates to S. aureus Mu50. The data set is classed as cell-based, Staphylococcus aureus. How it is done:
as §1, §2

A further data set concerns S. aureus Newman. The data set is classed as cell-based, Staphylococcus aureus. As for the experimental part:
as §1, §2

In a further data set the test system is S. aureus UAMS-1. The data set is classed as cell-based, Staphylococcus aureus. As for the experimental part: as §1, §2
In data set [1] the test system is S. aureus USA300. The data set is classed as cell-based, Staphylococcus aureus. How it is done:
as §1, §2

Data set [2] has as its system S. aureus USA300. It is filed as cell-based, Staphylococcus aureus. As for the experimental part: The minimal bactericidal concentration (MBC) was determined by plating 50 μl of the content in the clear wells of the above MIC assays. MBC was determined on the petri dishes without bacterial colony formation after overnight growth (Wang et al. (2012) Biochemistry 51:653-664).
The source holds these as a separate data set.

The test system of data set [3] is Candida albicans ATCC 10231. The data set is classed as cell-based. The settings on record: ATCC 10231, 48 h. How it is done:
(§3) Fungal strains used in this study include Candida albicans ATCC 10231, C. glabrata ATCC 2001 and C. tropicalis ATCC 13803. The fungi were grown in Remel Dex broth (Thermo Fisher Scientific, KS). Antifungal assays were conducted essentially as described for antibacterial assays above, except for a higher starting density at an OD600 0.02 and a longer incubation time of ˜48 hours prior to microplate reading (Mishra et al. (2015) RSC Advances 5:59758-59769).

The next data set relates to C. glabrata ATCC 2001. It is filed as cell-based, Candida glabrata. The settings on record: ATCC 2001, 48 h. How it is done: as §3
The test system of the next data set is C. tropicalis ATCC 13803. It is filed as cell-based, Candida tropicalis. The settings on record: ATCC 13803, 48 h. How it is done: as §3
Another data set is described as follows: Hemolytic assay. The data set is classed as cell-based. The settings on record: red blood cells, hemolysis. As for the experimental part: Hemolytic analysis of selected peptides was performed using an established protocol (Mishra et al. (2015) RSC Advances 5:59758-59769). Briefly, human blood cells (UNMC Blood Bank) were washed three times with phosphate buffer saline (PBS) and diluted to a 2% solution. After peptide treatment, incubation at 37° C. for one hour, and centrifugation at 13,000 rpm, aliquots of the supernatant were transferred to a fresh 96-well microplate. To assess peptide cytotoxicity, the amount of hemoglobin released was measured at 545 nm. The percent lysis was calculated by assuming 100% release when human blood cells were treated with 1% TRITON™ X-100, and 0% release when incubated with PBS buffer. The hemolytic assays using chicken, bovine, and porcine blood cells (Lampire Biological Laboratories, Inc.) were performed in the same manner.

Data set [4] is described as follows: MTS cytotoxicity assay. The data set is classed as cell-based. The settings on record: human. As for the experimental part:
(§4) HeLa CCL-2 epithelial adenocarcinoma cells from American Type Culture Collection (ATCC) were maintained in DMEM high glucose media with 4 mM L-glutamine (NyClone) and 100 U/mL penicillin, 100 μg/mL streptomycin (pen/strep) (Life Technologies), and 10% (v/v) inactivated fetal bovine serum (FBS) (NyClone). Cells were grown in 5% CO2 at 37° C. and were detached from the culturing dish at 80% confluency using 0.025% trypsin-EDTA (NyClone) treatment. Peptide influence on the cell viability was estimated by using the MTS assay according to the manufacturer's protocol (MTS, CellTiter96® AQ One Solution Cell Proliferation Assay, Promega) with minor modifications and as described elsewhere (Mishra et al. (2015) RSC Advances 5:59758-59769). In short, cells were cultured in flat bottomed 96 well microtiter plates (Corning Life Science) at a seeding density of 20,000 cells/well. At confluence ˜100% achieved after 20-24 hours of cultivation, the cells were washed twice with 100 μL Dulbecco's Phosphate Buffered Saline (Life Technologies). Further, 90 μL of DMEM media with 10% FBS, pen/step was added before exposure to 10 μL of the peptide solution in the concentration range 12.5-100 μM. Plates were incubated at 37° C. After 1 hour, 10 μL MTS, CellTiter96® was added. Plates were further incubated for another 2 hours at 37° C. and finally, the absorbance was measured on ChroMate® reader (Awareness Technology) at 492 nm. Culture medium and 0.2% SDS were used as negative and positive controls, respectively.
Human skin HaCaT (immortalized keratinocyte from AddexBio, T0020001) and kidney HEK293 cells were also cultivated for cytotoxicity evaluation of the peptides in a similar manner.
(In general: Formazan colour is commonly taken as a measure of viable cells.)

Data set [5] in a line: MTS cytotoxicity assay. Conditions: human, HeLa CCL-2 cells. The data set is classed as cell-based. As for the experimental part:
as §4

The test system of data set [6] is S. aureus USA300. Description: Propidium iodide membrane permeation. It is filed as cell-based, Staphylococcus aureus. As for the experimental part:
Fluorescence spectroscopy was also used to follow bacterial killing. In brief, a serially diluted 10× peptide (10 μL) was made in 96-well coming COSTAR microtiter plates. Propidium iodide (2 μL) was added at 50 μM to each well which was finally incubated with S. aureus USA300 bacteria (88 μL at a final OD600 ˜0.1) with continuous shaking at 100 rpm, 37° C. in a FLUOstar® Omega (BMG LABTECH Inc, NC) microplate reader. The plates were read every 5 minutes for a total duration of 2 hours with excitation and emission wavelengths at 584 nm and 620 nm respectively. Plots were made using averaged readings from duplicated experiments after subtraction of the media control.

The next data set deals with T1, S. aureus V8 protease (Staphylococcus aureus, UniProt P0C1U8).
T1 construct: purchased Sigma or Fisher
T1 sequence (P0C1U8 69-336): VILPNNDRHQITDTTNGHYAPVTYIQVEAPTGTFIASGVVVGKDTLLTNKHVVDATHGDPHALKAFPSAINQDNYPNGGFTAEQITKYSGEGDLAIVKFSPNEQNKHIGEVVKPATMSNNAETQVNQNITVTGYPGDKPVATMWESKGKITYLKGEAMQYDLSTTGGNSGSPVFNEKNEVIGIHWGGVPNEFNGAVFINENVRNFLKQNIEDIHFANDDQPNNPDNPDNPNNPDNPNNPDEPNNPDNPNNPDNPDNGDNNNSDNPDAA
The data set is classed as in vitro ADME. Conditions: peptide:protease 40:1, 24 hours, 37° C. As for the experimental part: (§5) When degraded, no peptide band could be detected on a 5% stacking/18% resolving tricine gel after 2-4 hours incubation at 37° C. Briefly, a solution (100 μL) containing 250 μM peptide and 6.25 μM protease (Sigma or Fisher) in 10 mM PBS buffer (pH 8) was incubated at 37° C. (peptide/protease molar ratio, 40:1). Aliquots (10 μL) of the reaction solutions were taken at 0, 6, and 24 hours and immediately mixed with 10 μL of 2× SDS loading buffer followed by boiling for 5 minutes to stop the reaction. […] After electrophoresis, the gel was stained by Brilliant Blue R-250 (Fisher) and destained to view the peptide bands.

The target of another data set is T2, proteinase K (Parengyodontium album, UniProt P06873).
T2 construct: purchased Sigma or Fisher
T2 sequence (P06873 106-384): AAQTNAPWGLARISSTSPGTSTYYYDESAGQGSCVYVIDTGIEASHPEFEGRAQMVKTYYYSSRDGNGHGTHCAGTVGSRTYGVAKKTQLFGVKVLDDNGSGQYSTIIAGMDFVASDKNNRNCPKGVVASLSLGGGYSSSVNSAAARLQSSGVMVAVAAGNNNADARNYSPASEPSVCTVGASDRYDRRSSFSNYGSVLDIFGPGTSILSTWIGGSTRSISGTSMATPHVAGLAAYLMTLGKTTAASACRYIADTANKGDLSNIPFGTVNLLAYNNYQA
Kind of data set: Peptide stability to proteases (SDS-PAGE). It is filed as in vitro ADME, fungal. The settings on record: peptide:protease 40:1, 24 hours, 37° C. How it is done:
as §5

Converted amounts (≈) assume the structure as drawn. Where two headings read alike, the source gives them in different places. Non-standard residues stand in square brackets, D forms with d. Residues, ends and D or L forms follow the SMILES beside them. Bounds are passed on as bounds.

With `CC[C@H](C)[C@H](NC(=O)[C@H](CCCCN)NC(=O)[C@H](CCCCN)NC(=O)[C@H](CC(C)C)NC(=O)[C@H](Cc1c[nH]c2ccccc12)NC(=O)[C@H](Cc1c[nH]c2ccccc12)NC(=O)[C@@H](N)Cc1c[nH]c2ccccc12)C(=O)N[C@@H](Cc1c[nH]c2ccccc12)C(N)=O` [TetraF2W-KK, WWWLKKIW] (H-WWWLKKIW-NH2; N-terminus and C-terminus assumed), the “MIC E. coli K12” value in the data set on E. coli K12 (K12) was 12.5 to 25 µM. Moreover, in the data set on S. epidermidis 1457, the “MIC S. epidermidis 1457” value was 6.2 µM (≈ 7.72 µg/mL). In addition, in the data set on B. subtilis 168, the “MIC B. subtilis 168” value worked out at 6.2 µM (≈ 7.72 µg/mL). In addition, the “Antimicrobial activity (MIC) Mu50” value in the data set with S. aureus Mu50 was 6.2 µM. In addition, the “Antimicrobial activity (MIC) Newman” value in the data set on S. aureus Newman is 6.2 µM. For the same compound, the “Antimicrobial activity (MIC) UAMS-1” value in the data set with S. aureus UAMS-1 stood at 6.2 µM. In addition, in the data set on S. aureus USA300 [1] (USA300), the “Antimicrobial activity (MIC) 150 mM NaCl” value was in the range of 3.1 to 6.2 µM. Moreover, in the data set with S. aureus USA300 [1] (USA300), the “Antimicrobial activity (MIC) USA300” value fell in the range of 3.1 to 6.2 µM. Further, in the data set with S. aureus USA300 [1] (USA300), the “MIC S. aureus USA300” value lay within 3.1 to 6.2 µM. Also, in the data set with S. aureus USA300 [1] (USA300, pH 6.8), the “Antimicrobial activity (MIC) pH 6.8” value came out at 12.5 μM. In the data set with S. aureus USA300 [1] (USA300, pH 7.4), the “Antimicrobial activity (MIC) Normal medium (pH 7.4)” value is recorded as 3.1-6.2 μM. Also, in the data set with S. aureus USA300 [1] (USA300, pH 8), the “Antimicrobial activity (MIC) pH 8” value is recorded as 3.1 μM. Also, the “MBC S. aureus USA300” value against S. aureus USA300 [2] and in the data set on S. aureus USA300 [2] (USA300) was over 25 µM each time. In addition, the “MIC Candida albicans” value in data set [3] is 6.2 µM (≈ 7.72 µg/mL). Also, the “MIC Candida glabrata” value in the data set with C. glabrata ATCC 2001 lay within 6.2 to 12.5 µM. The “MIC Candida tropicalis” value with C. tropicalis ATCC 13803 came to 1.6 µM (≈ 1.99 µg/mL). Further, the CC50 at 1 hour in “Hemolytic assay” (chicken, read-out: LC50 Chicken RBCs) is 50 µM; in “Hemolytic assay” (human, read-out: LC50 Human RBCs), 40 µM; in “Hemolytic assay” (pig, read-out: LC50 Porcine RBCs), 55 µM; in the data set “MTS cytotoxicity assay [4]” (HEK293 cells), 50 µM; in the data set “MTS cytotoxicity assay [4]” (HaCaT cells), 50 µM; in “MTS cytotoxicity assay [5]” it was 70 µM. Moreover, the “propidium iodide fluorescence change after treatment” value in the data set with S. aureus USA300 [6] is “least potent”.
As for `CC[C@@H](C)[C@@H](NC(=O)[C@@H](CCCCN)NC(=O)[C@@H](CCCNC(=N)N)NC(=O)[C@@H](CC(C)C)NC(=O)[C@@H](Cc1c[nH]c2ccccc12)NC(=O)[C@@H](Cc1c[nH]c2ccccc12)NC(=O)[C@H](N)Cc1c[nH]c2ccccc12)C(=O)N[C@H](Cc1c[nH]c2ccccc12)C(N)=O` [TetraF2W-RK-d, wwwlrkiw] (H-[dW][dW][dW][dL][dR][dK][dI][dW]-NH2; N-terminus and C-terminus assumed), the “MIC E. coli K12” value against E. coli K12 and in the data set with E. coli K12 (K12) was 6.2 µM (≈ 7.89 µg/mL) in each case. Further, the “MIC S. epidermidis 1457” value in the data set with S. epidermidis 1457 was found to be 6.2 µM (≈ 7.89 µg/mL). Moreover, the “MIC B. subtilis 168” value against B. subtilis 168 stood at 3.1 µM (≈ 3.94 µg/mL). Further, the “MIC S. aureus USA300” value with S. aureus USA300 [1] (USA300) amounted to 3.1 µM (≈ 3.94 µg/mL). Further, in the data set with S. aureus USA300 [2] (USA300), the “MBC S. aureus USA300” value was found to be 12.5 µM (≈ 15.9 µg/mL). Moreover, the “stability to S. aureus V8 protease” value on S. aureus V8 protease is recorded as “remained stable”. Further, the “stability to fungal proteinase K” value on proteinase K was “remained stable”.

(Values after US20190048052A1, “ANTI-MICROBIAL PEPTIDES AND COATINGS” (Board of Regents of the University of Nebraska, priority 2016, published 2019).)
